Data on two molecules can be found in patent US20090030083A1, “Use of n-(2-aryl-propionyl)-sulfonamides for the treatment of spinal cord injury” (Dompe' pha.r.ma S.p.A, priority 2004, published 2009).

Assay [1] concerns CD68 positive cells. The assay can be described thus: leukocyte infiltration after SCI (CD68 positive cells). It counts as in vivo, rat. Conditions: for Number of infiltrated leukocytes (mean ± SE; n = 8): 15 mg/kg i.v. then s.c. The procedure:
(§1) Adult Sprague-Dawley rats (females) weighing 240-260 g were maintained in the animal facilities under standard housing conditions (22±2° C., 65% humidity, artificial light from 06.00-20.00 h). A standard dry diet and water were available ad libitum. SCI in the rat was performed as previously reported (Gorio A. et al. Proc. Natl. Acad. Sci. USA 99, 9450-9455, 2002). The lesioning apparatus is computer controlled and free of the influence of gravity force. The force applied was 1N per 1 second. Leukocyte infiltration was quantitatively estimated by CD68 positive cells 1 and 7 days after SCI. […] The following days the animals were treated s.c. at 8 am and 5 pm until the 7th day after SCI. Animals were treated with compound of formula (III) (8 mg/kg) by i.v. injection within 30 minutes after SCI, then s.c. 24 hours after SCI. The following days the animals were treated s.c. every 36 hours until the 7th day after SCI.

The subject of assay [2] is oligodendrocytes. Briefly: apoptosis of oligodendrocytes after SCI (TUNEL). It is filed as in vivo, rat. Conditions: 28 days after SCI; for inhibition of oligodendrocyte apoptosis: vs saline; for Number of oligodendrocyte apoptic nuclei (mean ± SE; n = 12): gracilis and cuneatus fascicle, saline 14.9 ± 2. Here is the method:
Adult Sprague-Dawley rats (females) weighing 240-260 g were maintained in the animal facilities under standard housing conditions (22±2° C., 65% humidity, artificial light from 06.00-20.00 h). A standard dry diet and water were available ad libitum. SCI in the rat was performed as previously reported (Gorio A. et al. Proc. Natl. Acad. Sci. USA 99, 9450-9455, 2002). The lesioning apparatus is computer controlled and free of the influence of gravity force. The force applied was 1N per 1 second. Apoptosis of oligodendrocytes was determined at the level of the gracilis and cuneatus fascicle (3 mm rostrally from the site of contusion injury) 28 days after SCI using the terminal deoxynucleotidyltransferase-mediated dUTP and labeling (TUNEL) methodology. […] The following days the animals were treated s.c. at 8 am and 5 pm until the 7th day after SCI. Animals were treated with compound of formula (III) (8 mg/kg) by i.v. injection within 30 minutes after SCI, then s.c. 24 hours after SCI. The following days the animals were treated s.c. every 36 hours until the 7th day after SCI.

In assay [3] the test system is SCI in the rat. Briefly: extension of post-traumatic cavity / spared tissue at lesion site (histology). It counts as in vivo. Conditions: 28 days after SCI; for Percentage of spared tissue at lesion site (mean ± SE; n = 12), Lesion Epicenter: saline 39.8 ± 3.9; for Percentage of spared tissue at lesion site (mean ± SE; n = 12), Cavity Volume: saline 46.6 ± 3.1. The procedure: as §1, with “Extension of post-traumatic cavity” for “Leukocyte infiltration”, “performed” for “quantitatively estimated”, “classical histological techniques 28” for “CD68 positive cells 1 and 7”

The subject of assay [4] is SCI in the rat. Briefly: free locomotion test (BBB scale) after SCI, i.v./s.c. injection. The settings on record: i.v. within 30 minutes after SCI then s.c. until 7th day; (II) 15 mg/kg, (III) 8 mg/kg; FIG. 1 and 2. It counts as in vivo.
Experimental: Adult Sprague-Dawley rats (females) weighing 240-260 g were maintained in the animal facilities under standard housing conditions (22±2° C., 65% humidity, artificial light from 06.00-20.00 h). A standard dry diet and water were available ad libitum. […] The force applied was 1N per 1 second. Recovery from hind limb disability was evaluated by means of “free locomotion test” performed 24 hours, 4, 7, 11, 15, 19 and 27 days after SCI. The “free locomotion test” allows the detection of feet positioning, and joint rotation. The quality of functional recovery is quantitatively expressed according to the “BBB scale” developed at the Ohio University. Such a test allows the quantification of rat hind limb free locomotion deficits by observing their movements in an open space free of obstacles: 0—Lesioned rat cannot move either limbs 1—Small movement of a joint (heap or knee) From 2 to 6—Movement in progressive extension of the 3 joints 7—Good movement of the 3 joints 8—Animals walk without plantar support of the weight From 9 to 11—Animals walk from occasionally to progressively frequent with plantar support of the weight. 12—Occasional coordination of hind limbs and forelimbs during walk From 13 to 14—Progressive coordination with the forelimbs. 15—Consistent plantar support of weight and coordination during walk; occasional movement of fingers during advancement. […]

On to `CC(C)Cc1ccc([C@@H](C)C(=O)NS(C)(=O)=O)cc1` [compound of formula (II), (R)-ibuprofen methanesulfonamide], for which, in assay [1] (Epicenter, 1 day from SCI, saline 125 ± 36), the “Number of infiltrated leukocytes (mean ± SE; n = 8)” value (from here on “Number … (mean ± SE; n = 8)”) was determined as 24 ± 3. Further, the “Number … (mean ± SE; n = 8)” value in assay [1] (Epicenter, 7 days from SCI, saline 235 ± 54) was 19 ± 3. Moreover, in assay [1] (Periphery, 1 day from SCI, saline 56 ± 13), the “Number … (mean ± SE; n = 8)” value is 3 ± 1. For the same molecule, the “Number … (mean ± SE; n = 8)” value in assay [1] (Periphery, 7 days from SCI, saline 99 ± 32) was 4 ± 2. Besides, the “inhibition of leukocyte infiltration” value in assay [1] (at 24 hours and 7 days after SCI, vs saline) was 80%. In assay [2], the “inhibition of oligodendrocyte apoptosis” value is reported as 85% and the “Number of oligodendrocyte apoptic nuclei (mean ± SE; n = 12)” value is 2.1 ± 1.2. Also, in assay [3], the “tissue damage at the site of the lesion and extension of post-traumatic cavity, in words” value is “significantly reduced tissue damage”; the “Percentage of spared tissue at lesion site (mean ± SE; n = 12), Lesion Epicenter” value worked out at 48.9 ± 3.0 %; the “Percentage of spared tissue at lesion site (mean ± SE; n = 12), Cavity Volume” value is reported as 58.2 ± 2.9 %.

For the molecule `C[C@@H](C(=O)NS(C)(=O)=O)c1ccc(OS(=O)(=O)C(F)(F)F)cc1` [compound of formula (III), R-2-[(4′-trifluoromethanesulphonyloxy)phenyl]-N-methanesulfonyl propionamide], the “functional hind limb recovery (motor score, BBB scale), in words” value in assay [4] was “significantly promoted functional hind limb recovery”. In assay [2], the “inhibition of oligodendrocyte apoptosis” value was determined as 65% and the “Number of oligodendrocyte apoptic nuclei (mean ± SE; n = 12)” value is listed as 5.2 ± 3.8. Besides, in assay [3], the “tissue damage at the site of the lesion and extension of post-traumatic cavity, in words” value is reported as “significantly reduced tissue damage”; the “Percentage of spared tissue at lesion site (mean ± SE; n = 12), Lesion Epicenter” value is 49.7 ± 4.2 %; the “Percentage of spared tissue at lesion site (mean ± SE; n = 12), Cavity Volume” value was found to be 60.4 ± 4.3 %.
